Data published in PMC4669708 (Cell Death & Disease, 2015).

Legend:
Test in all cases: c-ponatinib pulldown LC-MS/MS
Type in all cases: binding
[1] = molecular target: BLK (Homo sapiens, UniProt P51451)
Summary of the method: (§1)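 c-Ponatinib (25 nmol) immobilized on NHS-Sepharose was incubated with 10 mg whole cell lysate per replicate, in duplicate. Eluates were reduced, alkylated, trypsin-digested and analysed by gel-free 1D LC-MS/MS. Specificity was scored from Mascot, Phenyx and spectral counts, with competition by free compound.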

[2] = molecular target: T1, GAK (Homo sapiens, UniProt O14976)
T1 sequence (O14976 1-1311): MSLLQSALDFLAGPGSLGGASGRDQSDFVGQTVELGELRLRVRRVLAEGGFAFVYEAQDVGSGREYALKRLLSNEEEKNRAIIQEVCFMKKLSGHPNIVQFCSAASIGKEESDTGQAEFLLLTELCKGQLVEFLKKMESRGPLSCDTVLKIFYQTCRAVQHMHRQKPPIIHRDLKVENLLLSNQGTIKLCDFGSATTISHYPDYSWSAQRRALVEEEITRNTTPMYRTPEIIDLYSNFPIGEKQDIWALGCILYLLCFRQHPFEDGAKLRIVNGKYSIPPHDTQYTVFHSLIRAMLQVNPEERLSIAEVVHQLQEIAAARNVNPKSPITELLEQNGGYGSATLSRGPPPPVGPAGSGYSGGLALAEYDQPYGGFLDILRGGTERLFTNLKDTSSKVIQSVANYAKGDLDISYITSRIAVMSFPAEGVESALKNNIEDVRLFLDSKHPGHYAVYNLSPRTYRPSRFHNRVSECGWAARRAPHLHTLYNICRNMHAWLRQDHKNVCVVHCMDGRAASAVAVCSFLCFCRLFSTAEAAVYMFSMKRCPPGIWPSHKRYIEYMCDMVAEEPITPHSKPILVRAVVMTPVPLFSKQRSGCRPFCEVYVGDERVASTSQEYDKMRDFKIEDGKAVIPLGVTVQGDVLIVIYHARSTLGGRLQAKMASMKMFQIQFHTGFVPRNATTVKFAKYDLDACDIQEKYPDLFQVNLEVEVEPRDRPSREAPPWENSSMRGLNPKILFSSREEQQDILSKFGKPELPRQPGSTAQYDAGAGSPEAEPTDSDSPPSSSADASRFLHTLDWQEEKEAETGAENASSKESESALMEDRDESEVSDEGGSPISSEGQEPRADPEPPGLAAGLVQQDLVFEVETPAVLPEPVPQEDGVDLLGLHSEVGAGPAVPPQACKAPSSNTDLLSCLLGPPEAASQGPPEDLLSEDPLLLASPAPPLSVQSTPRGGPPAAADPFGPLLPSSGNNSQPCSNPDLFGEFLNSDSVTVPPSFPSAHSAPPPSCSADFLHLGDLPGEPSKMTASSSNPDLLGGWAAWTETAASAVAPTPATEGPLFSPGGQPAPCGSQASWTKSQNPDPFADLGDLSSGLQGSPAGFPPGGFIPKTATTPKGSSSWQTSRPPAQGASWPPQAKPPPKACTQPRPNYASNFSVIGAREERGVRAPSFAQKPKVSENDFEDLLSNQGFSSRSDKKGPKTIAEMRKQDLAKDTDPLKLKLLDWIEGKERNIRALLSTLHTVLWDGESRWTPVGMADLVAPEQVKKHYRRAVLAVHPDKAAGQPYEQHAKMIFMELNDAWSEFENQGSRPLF
Summary of the method: as §1

[3] = molecular target: T2, YWHAQ (Homo sapiens, UniProt P27348)
T2 sequence (P27348 1-245): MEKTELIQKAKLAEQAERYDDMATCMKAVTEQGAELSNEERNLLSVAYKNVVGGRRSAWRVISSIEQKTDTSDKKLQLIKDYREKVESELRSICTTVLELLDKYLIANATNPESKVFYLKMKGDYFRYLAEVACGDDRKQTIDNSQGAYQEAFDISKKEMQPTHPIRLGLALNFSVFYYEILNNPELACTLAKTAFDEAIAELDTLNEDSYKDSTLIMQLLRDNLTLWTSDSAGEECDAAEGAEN
Summary of the method: as §1

Chain of BLK (P51451 whole entry): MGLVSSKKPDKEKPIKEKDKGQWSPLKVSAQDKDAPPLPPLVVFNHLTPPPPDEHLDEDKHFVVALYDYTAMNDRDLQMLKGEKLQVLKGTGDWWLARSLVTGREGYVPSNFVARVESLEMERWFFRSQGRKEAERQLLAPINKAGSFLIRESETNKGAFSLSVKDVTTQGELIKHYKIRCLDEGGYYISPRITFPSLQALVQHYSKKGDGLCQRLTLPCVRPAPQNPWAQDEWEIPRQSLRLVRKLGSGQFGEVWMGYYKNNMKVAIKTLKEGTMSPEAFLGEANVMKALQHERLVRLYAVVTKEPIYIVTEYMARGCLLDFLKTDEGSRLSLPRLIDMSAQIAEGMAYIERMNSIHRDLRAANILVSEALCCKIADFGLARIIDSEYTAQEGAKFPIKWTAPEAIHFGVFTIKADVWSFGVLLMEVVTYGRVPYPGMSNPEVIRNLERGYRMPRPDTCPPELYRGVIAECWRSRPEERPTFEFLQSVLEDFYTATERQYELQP

## Cc1ccc(C(=O)Nc2ccc(CN3CCN(CCCN)CC3)c(C(F)(F)F)c2)cc1C#Cc1cnc2cccnn12 [c-ponatinib]
[1]; + free ponatinib
  Av. SC comp.: 0
  Total SC comp.: 0
[1]; no competitor
  Av. SC: 9.5
  Total SC: 38
[2]; + free ponatinib
  Av. SC comp.: 10.25
  Total SC comp.: 41
[2]; no competitor
  Av. SC: 22.75
  Total SC: 91
[3]; + free ponatinib
  Av. SC comp.: 1.25
  Total SC comp.: 5
[3]; no competitor
  Av. SC: 9
  Total SC: 36
